Results on 45 compounds are retold here after ChEMBL document CHEMBL1150251, “SAR and QSAR study on 2-aminothiazole derivatives, modulators of transcriptional repression in Huntington's disease” (Bioorg Med Chem, 2008).

The test relates to ST14A. Kind of test: Modulation of RE1/NRSE expressed in ST14A cells assessed as increase in luciferase reporter activity at 50 nM after 72 hrs relative to control. The test is classed as cell-based. In general terms: In a reporter assay the amount or activity of a reporter protein is the signal.

Take `Cc1nc2sccn2c1-c1csc(Nc2ccc(N(C)C)cc2)n1`: the Activity is 1.8. Under `Cc1nc2sccn2c1-c1csc(Nc2ccc(N)cc2)n1` stands 1.14; under `Cc1nc2ccccn2c1-c1csc(NC(=O)c2ccccc2)n1`, 1.09. `Cc1nc2ccccn2c1-c1csc(NC(=O)c2ccco2)n1`: the Activity amounted to 0.94. To `Cc1ccn2c(-c3csc(Nc4cccc(C(=O)O)c4)n3)c(C)nc2c1` belongs 1.14; to `CN(C)c1ccc(Nc2nc(-c3ccccc3)cs2)cc1`, 1.3; to `CCOc1ccc(Nc2nc(-c3c(C)nc4cc(C)ccn34)cs2)cc1`, 1.88. `CCN(CC)c1ccc(Nc2nc(-c3c(C)nc4ncccn34)cs2)cc1`: the Activity is 1.16. In the case of `Cc1ccn2c(-c3csc(Nc4ccc(O)cc4)n3)c(C)nc2c1`, the Activity came out at 1.08. As for `Cc1nc2ccccn2c1-c1csc(Nc2ccc(Br)cc2)n1`, the Activity was found to be 1.9. For `Cc1nc2ccccn2c1-c1csc(NC(=O)c2ccc(Br)cc2)n1`, the Activity is 0.94. Regarding `COc1ccc(Nc2nc(-c3c(C)nc4ncccn34)cs2)cc1`, the Activity is 2.29. Under `COc1ccc(Nc2nc(-c3c(C)nc4ccccn34)cs2)cc1` stands 2; under `Cc1nc2ccccn2c1-c1csc(NC(=O)c2ccncc2)n1`, 1.

For `Cc1ccn2c(-c3csc(Nc4ccc(N)cc4)n3)c(C)nc2c1`, the Activity was 1.14. To `Cc1ccn2c(-c3csc(Nc4ccc(N(C)C)cc4)n3)c(C)nc2c1` belongs 2.55; to `Cc1nc2ccccn2c1-c1csc(NC(=O)c2cccnc2)n1`, 0.98; to `CCN(CC)c1ccc(Nc2nc(-c3c(C)nc4ccccn34)cs2)cc1`, 1.09. Turning to `Cc1ccn2c(-c3csc(NCc4ccco4)n3)c(C)nc2c1`, the Activity is 0.99. To `Cc1ccn2c(-c3csc(NCc4ccccc4)n3)c(C)nc2c1` belongs 1.3. In the case of `COc1ccc(Cl)c(Nc2nc(-c3c(C)nc4sccn34)cs2)c1`, the Activity was 0.91. To `Cc1ccn2c(-c3csc(Nc4ccc(C(=O)O)cc4)n3)c(C)nc2c1` belongs 1.12; to `Cc1nc2ccccn2c1-c1csc(Nc2ccc(N)cc2)n1`, 1.28; to `Cc1nc2ncccn2c1-c1csc(Nc2ccc(N(C)C)cc2)n1`, 3.34. Under `Cc1nc2ccccn2c1-c1csc(NCc2ccco2)n1` stands 1.01; under `COc1ccc(Nc2nc(-c3c(C)nc4cc(C)ccn34)cs2)cc1`, 2.19; under `CCOc1ccccc1Nc1nc(-c2c(C)nc3cc(C)ccn23)cs1`, 0.94.

With `COc1ccc(Cl)c(Nc2nc(-c3c(C)nc4ncccn34)cs2)c1`, the Activity turned out to be 0.74.

As to `Cc1nc2ccccn2c1-c1csc(Nc2ccccc2)n1`, the Activity was determined as 1.01. Under `Cc1nc2ccccn2c1-c1csc(NCc2ccccc2)n1` stands 0.97.

In the case of `Cc1nc2ccccn2c1-c1csc(Nc2ccc(O)cc2)n1`, the Activity came to 1.02. As for `Cc1ccnc(Nc2nc(-c3c(C)nc4ccccn34)cs2)c1`, the Activity is 0.98. Regarding `COc1cc(Br)c(Nc2nc(-c3c(C)nc4cc(C)ccn34)cs2)c(Br)c1`, the Activity is 1.07. Under `C=CCNc1nc(-c2c(C)nc3ccccn23)cs1` stands 0.91; under `COc1cc(Br)c(Nc2nc(-c3c(C)nc4ncccn34)cs2)c(Br)c1`, 1.03. To `COc1ccccc1Nc1nc(-c2c(C)nc3ncccn23)cs1` belongs 0.97.

On to `Cc1nc2ccccn2c1-c1csc(N)n1`, for which the Activity was found to be 0.87. Under `Cc1nc2sccn2c1-c1csc(Nc2ccc(O)cc2)n1` stands 0.95; under `Cc1nc(N)sc1-c1csc(Nc2ccc(N(C)C)cc2)n1`, 1.23; under `Cc1nc2ncccn2c1-c1csc(Nc2ccc(O)cc2)n1`, 0.89. Under `CN(C)c1ccc(Nc2nc(-c3ccncc3)cs2)cc1` stands 1.13; under `CCN(CC)c1ccc(Nc2nc(-c3c(C)nc4sccn34)cs2)cc1`, 1.04. Under `CCN(CC)c1ccc(Nc2nc(-c3c(C)nc4cc(C)ccn34)cs2)cc1` stands 1.06; under `COc1ccc(Cl)c(Nc2nc(-c3c(C)nc4ccccn34)cs2)c1`, 1.09. Turning to `Cc1nc2ccccn2c1-c1csc(Nc2cccc(O)c2)n1`, the Activity was determined as 1.04.
